Reference: PMC4703387, “Identification of the Calmodulin-Binding Domains of Fas Death Receptor” (PLoS ONE, 2016)
Read-outs that look alike come from different tables or passages of the source. Each block holds one substance with its values, some of them ahead of it. Where no end group is shown, it is not given here.

What was measured:
Ca^2+/CaM [1] = target: T1, Ca^2+/CaM (Homo sapiens, UniProt P0DP23); conditions: reference not given; earlier FasDD study of the authors: ref [32]; read-out: Kd to Ca^2+/CaM, full-length FasDD; cited from earlier work
T1 construct: made in house
Text: We have also shown that both lobes of Ca^2+/CaM are important for FasDD binding. […] Our attempt to identify the interaction regions by ... || To identify the Ca^2+/CaM-binding regions in large proteins is not a simple task. To predict the Ca^2+/CaM-binding site, a web-based tool is often used to provide favorable scores based on multiple criteria including hydropathy, α-helical propensity, hydrophobic residue content, residue charge, residue weight, helical class and occurrence of particular residues.[39] However, this method can still provide biased results.

Ca^2+/CaM [2] = target: T1, Ca^2+/CaM; assay: Isothermal titration calorimetry (ITC), Ca^2+/CaM titrated into peptide; type: binding; conditions: Ca^2+/CaM 450 μM into 25 μM Fas-Pep1 (25°C) or 195 μM into 17 μM Fas-Pep2 (35°C); 50 mM HEPES (pH 7.0), 100 mM NaCl, 5 mM CaCl2; single set of identical sites; three replicates typically
Protocol: Thermodynamic parameters of Ca^2+/CaM binding to Fas-Pep1 and Fas-Pep2 peptides were determined using an Auto-iTC200 microcalorimeter (Malvern Instruments). […] Heat of reaction of Ca^2+/CaM was measured over 19 injections at 25°C for Fas-Pep1 or 35°C for Fas-Pep2. Heat of dilution was measured by titrating Ca^2+/CaM into buffer. Data analysis was performed using the Microcal Origin package (ver. 8.1). Baseline corrections were performed by subtracting heat of dilution from the raw Ca^2+/CaM-peptide titration data. Binding curves were analyzed and dissociation constants (Kd) were determined by nonlinear least-square fitting of the baseline-corrected data. The formula used to fit the data as one binding site is: ΔQ(i)=Q(i)+(dVi/Vo)[(Q(i)+Q(i−1))/2]–Q(i–1) where ΔQ(i) is the heat released at i^th injection, Q(i) is the total heat content of the solution, dVi is injection volume, and Vo is total volume. Three replicate titration experiments were typically performed for each peptide.
Although it is recognized that the most frequent mechanism of CaM binding to target proteins involves the hydrophobic surfaces on the N- and C-terminal lobes,[23] electrostatic interactions also contribute to the formation and stabilization of CaM-protein complexes since CaM is acidic and CaM-binding motifs are often basic.[44, 45] The thermodynamic parameters of binding and the relative contribution of hydrophobic vs. electrostatic factors are often assessed by ITC methods, yielding various parameters such as dissociation constant (Kd), stoichiometry (n), enthalpy change (ΔH°) and entropy change (ΔS°). The thermodynamic parameters of Ca^2+/CaM binding to Fas-Pep1 and Fas-Pep2 were assessed by ITC.

Ca^2+/CaM-N = target: T2, Ca^2+/CaM-N (Homo sapiens, UniProt P0DP23); assay: NMR titration (2D 1H-15N HSQC) of isolated N-terminal lobe; type: binding; conditions: NMR HSQC titration, one-site model, 35°C, 50 mM Tris-d11 (pH 7.0), 100 mM NaCl, 5 mM CaCl2; 15N-Ca^2+/CaM-N 150 μM
T2 construct: ^15N-labled samples of the isolated Ca^2+/CaM-N and Ca^2+/CaM-C domains; made in house
Protocol: (§1) NMR data were collected at 35°C on a Bruker Avance II (700 MHz ^1H) spectrometer equipped with a cryogenic triple-resonance probe, processed with NMRPIPE [35] and analyzed with NMRVIEW [36] or CCPN Analysis. […] For signal assignments of the complexes, ^13C-, ^15N-, or ^13C-/^15N-labeled Ca^2+/CaM at ~400–500 μM was mixed with unlabeled Fas-Pep1 (in 100% DMSO-d6) or Fas-Pep2 at 1.5:1 peptide:Ca^2+/CaM. […] The backbone atom resonances of Ca^2+/CaM complexes with Fas-Pep1 and Fas-Pep2 were assigned using HNCA, HN(CO)CA, HNCACB, HNCO, HN(CO)CACB and ^15N-edited NOESY-HSQC and TOCSY-HSQC experiments. These experiments have been also collected on ^15N-, or ^13C-/^15N-labeled Fas-Pep2 in complex with unlabeled Ca^2+/CaM to confirm the α-helical character of Fas-Pep2 when bound to Ca^2+/CaM. […] Combined ^1H-^15N chemical shift changes were calculated as ΔδHN = [(ΔδH)^2+(ΔδN/5)^2]^1/2, where ΔδH and ΔδN are the ^1H and ^15N chemical shift changes, respectively. Kd values were calculated by non-linear least-square fitting algorithm in Origin software (OriginLab, Northampton, MA) using the equation: ΔδHN=ΔδHN^max((Kd+L0+P0)−((Kd+L0+P0)^2−4*P0*L0)^0.5)/(2*P0) where ΔδHN^max is the chemical shift change between complex and free protein, L0 total concentration of ligand, and P0 total concentration of protein. […]

Ca^2+/CaM-C = target: T3, Ca^2+/CaM-C (Homo sapiens, UniProt P0DP23); assay: NMR titration (2D 1H-15N HSQC) of isolated C-terminal lobe; type: binding; conditions: NMR HSQC titration, one-site model, 35°C, 50 mM Tris-d11 (pH 7.0), 100 mM NaCl, 5 mM CaCl2; 15N-Ca^2+/CaM-C 150 μM
T3 construct: ^15N-labled samples of the isolated Ca^2+/CaM-N and Ca^2+/CaM-C domains; made in house
Protocol: as §1

Ca^2+/CaM [3] = target: T1, Ca^2+/CaM; assay: NMR titration (2D 1H-15N HSQC) of 15N-labeled Ca^2+/CaM with FasDD peptides; type: binding
Protocol: NMR data were collected at 35°C on a Bruker Avance II (700 MHz ^1H) spectrometer equipped with a cryogenic triple-resonance probe, processed with NMRPIPE [35] and analyzed with NMRVIEW [36] or CCPN Analysis. […] For signal assignments of the complexes, ^13C-, ^15N-, or ^13C-/^15N-labeled Ca^2+/CaM at ~400–500 μM was mixed with unlabeled Fas-Pep1 (in 100% DMSO-d6) or Fas-Pep2 at 1.5:1 peptide:Ca^2+/CaM. […] The backbone atom resonances of Ca^2+/CaM complexes with Fas-Pep1 and Fas-Pep2 were assigned using HNCA, HN(CO)CA, HNCACB, HNCO, HN(CO)CACB and ^15N-edited NOESY-HSQC and TOCSY-HSQC experiments. These experiments have been also collected on ^15N-, or ^13C-/^15N-labeled Fas-Pep2 in complex with unlabeled Ca^2+/CaM to confirm the α-helical character of Fas-Pep2 when bound to Ca^2+/CaM. The chemical shifts of Ca^2+/CaM-bound Fas-Pep2 were used to predict its order parameters and secondary structure content in TALOS+.[38] Combined ^1H-^15N chemical shift changes were calculated as ΔδHN = [(ΔδH)^2+(ΔδN/5)^2]^1/2, where ΔδH and ΔδN are the ^1H and ^15N chemical shift changes, respectively. Kd values were calculated by non-linear least-square fitting algorithm in Origin software (OriginLab, Northampton, MA) using the equation: ΔδHN=ΔδHN^max((Kd+L0+P0)−((Kd+L0+P0)^2−4*P0*L0)^0.5)/(2*P0) where ΔδHN^max is the chemical shift change between complex and free protein, L0 total concentration of ligand, and P0 total concentration of protein.
To gain insights into the molecular elements of Ca^2+/CaM–FasDD interaction and to identify the interaction interface, we have utilized NMR chemical shift perturbation (CSP) as detected in ^1H-^15N heteronuclear single quantum coherence (HSQC) spectra. These experiments not only allow for identification of residues involved in binding but can also provide information on the induced conformational changes within proteins. 2D ^1H-^15N HSQC data obtained for a uniformly ^15N-labeled Ca^2+/CaM upon titration with unlabeled Fas-Pep1 are shown in Fig 5. Addition of substoichiometric amounts of Fas-Pep1 (0.5:1 peptide:Ca^2+/CaM) led to a decrease in intensity for a significant number of ^1H-^15N resonances accompanied by appearance of several new signals, consistent with a slow exchange on the NMR scale between the free and bound forms of Ca^2+/CaM. A steady decrease in intensity for the original ^1H-^15N signals and increase in intensity of the new signals was clearly observed with further addition of Fas-Pep1. Spectral changes ceased upon completion of peptide titration at 1.5:1 Fas-Pep1:Ca^2+/CaM ratio when only the new set of signals was present (Fig 5). […]
Only residues 214–227 have been detected in the x-ray structure of Ca^2+/CaM bound to FasDD(214–238); no electron density has been detected for residues 228–238.[40] […]

Substance: FasDD: intracellular death domain of Fas
Kd (Ca^2+/CaM [1]): ~2 µM

Kd (Ca^2+/CaM [2]): 0.3 µM | Kd (Ca^2+/CaM-N): ~268 µM | Kd (Ca^2+/CaM-C): 76 µM
Substance: SDVDLSKYITTIAGVMTLSQVKGFVRKNGVN [Fas-Pep1]

NMR exchange regime with Ca^2+/CaM (Ca^2+/CaM [3]; 1H-15N HSQC, 15N-Ca^2+/CaM 100–150 μM, 35°C, pH 7.0): fast exchange
Substance: MTLSQVKGFVRKNGV [FasDD(224–238), synthetic FasDD peptide spanning residues 224–238; …]
binding to Ca^2+/CaM by CSPs (Ca^2+/CaM [3]; 1H-15N HSQC titration, 15N-Ca^2+/CaM 100 μM, 35°C, pH 7.0): Numerous ^1H-^15N signals exhibited significant CSPs in the HSQC spectra (S7 Fig), indicating direct binding | lobe preference on Ca^2+/CaM (Ca^2+/CaM [3]; 1H-15N HSQC, 15N-Ca^2+/CaM 100 μM): appears to bind to the C-terminal domain of Ca^2+/CaM
